Key:
[1] = particle size after vortexing, sonication, mortar and pestle; type: physicochemical; conditions: for average particle size: 2.5 mg/mL in 0.1% Tween 80 and 0.5% CMC, vortexing
Protocol: A number of homogenization methods were evaluated, including vortexing, sonication, and mortar and pestle method.
For vortexing, Example 47 was suspended at 2.5 mg/mL in 0.1% Tween 80 and 0.5% carboxymethyl cellulose (CMC), followed by vortexing. The average particle size was ˜100 μm.
For sonication, Example 47 was suspended at 2.5 mg/mL in 0.1% Tween 80 and 0.5% CMC followed by vortexing. The mixture was then subject to probe sonication for 5 minutes (with ice at 3 W, maximum power based on vial size). Finally, the mixture was homogenized by a handheld homogenizer for a few minutes. The average particle size was ˜80 μm.
In mortar and pestle method, 10 mg of Example 47 was ground for 5 minutes using mortar and pestle, then suspended in 0.5% Tween 80. […] Size range for the larger peak was 1-100 μm.

[2] = serum, injection site muscle and lymph node levels after intramuscular injection; type: in vivo; conditions: mice, intramuscular 4 mpk with 3MenB/Alum; both DMSO (non-homogeneous) and homogeneous suspensions
RSV virus = test: neutralizing titers (PRNT60), RSV model; type: in vivo, respiratory syncytial virus (RSV); conditions: Study 1; Balb/c mice; 25 μg dose
Source text: Mice were bled retro-orbitally on day 28.

[3] = matrix of surfactants and suspending agents, size distribution by Mastersizer; type: physicochemical; conditions: vortexed, probe sonicated, homogenized
Protocol: A number of surfactants and suspension agents were also evaluated. The matrix of surfactants and suspending agents, and the corresponding sizes distributions of the suspension particles are shown in the Table 1 below (D50, D90 (μm)).
In each experiment, 10 mg of Example 47 was mixed with 2 mL surfactant and 2 mL suspending agent. The mixtures were vortexed for 5 minutes, and probe sonicated at 3 W and homogenized for 2-4 minutes. The size distributions of the samples were measured using Mastersizer.
No visual size reduction was observed after sonication. Some size reduction was noticed visually after homogenization.

[4] = aqueous solubility and chemical stability of Example 47; type: physicochemical
Protocol: Example 47 is a highly crystalline drug substance with very good chemical stability. Due to its extremely low aqueous solubility across full pH range (<0.5 μg/ml) and its high hydrophobic core structure, formulation with Alum (the only vaccine adjuvant licensed in the U.S.) is challenging. However, TLR7 agonist-Alum based vaccines could provide advantages, for example, induction of Th1 polarized response, and enhanced Serum Bactericidal Activity (SBA) and breath of coverage (e.g., MenB).

[5] = 10 mg ground 5 minutes with mortar and pestle, suspended in 0.5% Tween 80
[6] = 0.5% CMC, 0.5% Sodium Lauryl Sulfate
[7] = 0.5% HPC, 0.5% Sodium Lauryl Sulfate
[8] = 0.5% HPMC, 0.5% Sodium Lauryl Sulfate

## Cc1ccc(CCc2cnc3c(N)nc4ccccc4c3c2)c(C)c1 [Example 47, 2-(2,4-dimethylphenethyl)benzo[f][1,7]naphthyridin-5-amine]
[1]
  average particle size: ~100 μm
[1]; probe sonication 5 minutes, handheld homogenizer
  average particle size: ~80 μm
[1]; [5]
  particle size peak (larger): ~8 μm
  particle size peak (smaller): 0.1 μm
  size range for the larger peak: 1-100 μm
[2]
  systemic exposure: low systemic exposure
RSV virus
  neutralizing titers, comparison of doses: Highest neutralizing titers
[3]; 0.5% CMC, 0.1% Tween 80
  D50: 76.2 μm
  D90: 144.7 μm
[3]; 0.5% CMC, 0.5% Pluronic F-68
  D50: 49.1 μm
  D90: 104.4 μm
[3]; [6]
  D50: 28.0 μm
  D90: 53.3 μm
[3]; 0.5% CMC, 0.5% Tween 80
  D50: 75.8 μm
  D90: 149.1 μm
[3]; 0.5% HPC, 0.1% Tween 80
  D50: 43.6 μm
  D90: 68.0 μm
[3]; 0.5% HPC, 0.5% Pluronic F-68
  D50: 35.8 μm
  D90: 54.9 μm
[3]; [7]
  D50: 38.9 μm
  D90: 53.1 μm
[3]; 0.5% HPC, 0.5% Tween 80
  D50: 35.4 μm
  D90: 53.5 μm
[3]; 0.5% HPMC, 0.1% Tween 80
  D50: 25.8 μm
  D90: 53.5 μm
[3]; 0.5% HPMC, 0.5% Pluronic F-68
  D50: 19.4 μm
  D90: 33.5 μm
[3]; [8]
  D50: 26.8 μm
  D90: 59.3 μm
[3]; 0.5% HPMC, 0.5% Tween 80
  D50: 27.5 μm
  D90: 49.7 μm
[4]; aqueous media, across full pH range
  solubility: < 0.5 µg/mL
[4]; crystalline drug substance
  chemical stability: very good

Source: US10046048B2, “Homogenous suspension of immunopotentiating compounds and uses thereof” (GlaxoSmithKline Biologicals SA, priority 2009, dated 2018)
